In data set [1] the target is T1, AhR (Homo sapiens, UniProt P35869).
T1 sequence (P35869 11-848): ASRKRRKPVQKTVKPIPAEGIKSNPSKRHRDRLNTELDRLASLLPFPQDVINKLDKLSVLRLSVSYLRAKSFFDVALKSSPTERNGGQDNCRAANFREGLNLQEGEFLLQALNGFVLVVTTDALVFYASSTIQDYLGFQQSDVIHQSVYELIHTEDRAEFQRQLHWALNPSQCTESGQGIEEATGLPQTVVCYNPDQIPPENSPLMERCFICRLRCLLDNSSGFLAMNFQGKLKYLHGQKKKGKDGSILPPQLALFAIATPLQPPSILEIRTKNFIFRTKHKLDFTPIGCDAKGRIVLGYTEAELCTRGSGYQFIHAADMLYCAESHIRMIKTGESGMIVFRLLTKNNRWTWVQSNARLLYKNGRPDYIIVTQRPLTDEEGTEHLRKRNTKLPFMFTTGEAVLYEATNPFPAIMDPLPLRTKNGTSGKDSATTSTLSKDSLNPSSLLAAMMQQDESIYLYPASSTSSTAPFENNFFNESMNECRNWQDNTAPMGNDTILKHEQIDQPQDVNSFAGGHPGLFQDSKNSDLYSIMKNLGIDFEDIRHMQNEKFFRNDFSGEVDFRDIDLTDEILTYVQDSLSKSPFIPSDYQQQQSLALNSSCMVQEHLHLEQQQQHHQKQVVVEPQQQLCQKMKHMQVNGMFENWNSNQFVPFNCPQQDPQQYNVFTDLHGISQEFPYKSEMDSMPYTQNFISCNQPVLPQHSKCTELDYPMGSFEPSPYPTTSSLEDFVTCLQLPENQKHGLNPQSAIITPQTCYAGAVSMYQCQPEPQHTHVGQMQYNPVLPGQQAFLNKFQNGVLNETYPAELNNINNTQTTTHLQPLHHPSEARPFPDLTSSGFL
The settings on record: in humans; cited from earlier work.

Data set [2] concerns CYP1A1/AHH. The settings on record: read-out: ED50 for induction of CYP1A1/AHH; porcine aortic endothelial; cited from earlier work.
For data set [3], the target named is T2, ER (Homo sapiens, UniProt P03372).
T2 construct: stably transfecting MCF-7 cells with the ERE-globin-tk-luc-SV-Neo plasmid; endogenous in cells; host or cells: MCF-7-Luc (MCF-7 stably transfected with ERE-globin-tk-luc-SV-Neo)
T2 sequence (P03372 1-595): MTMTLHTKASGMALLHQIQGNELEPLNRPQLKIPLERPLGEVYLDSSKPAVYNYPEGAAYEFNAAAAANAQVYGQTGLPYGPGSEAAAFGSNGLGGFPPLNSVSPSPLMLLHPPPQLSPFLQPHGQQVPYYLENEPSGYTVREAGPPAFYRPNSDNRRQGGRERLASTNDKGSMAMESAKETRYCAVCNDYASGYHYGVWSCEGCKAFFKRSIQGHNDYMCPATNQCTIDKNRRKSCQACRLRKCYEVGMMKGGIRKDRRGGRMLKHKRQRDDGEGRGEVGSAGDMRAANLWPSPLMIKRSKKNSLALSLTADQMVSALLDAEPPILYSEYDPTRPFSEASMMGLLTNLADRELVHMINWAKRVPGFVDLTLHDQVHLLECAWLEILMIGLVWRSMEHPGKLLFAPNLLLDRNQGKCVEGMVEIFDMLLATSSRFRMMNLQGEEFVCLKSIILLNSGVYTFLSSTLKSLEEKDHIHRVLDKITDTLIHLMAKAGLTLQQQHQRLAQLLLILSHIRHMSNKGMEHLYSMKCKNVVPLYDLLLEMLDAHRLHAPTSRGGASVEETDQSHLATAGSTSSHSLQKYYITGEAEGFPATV
Nature of the data set: ER-mediated transactivation, ERE-driven Luciferase reporter stable cell line (MCF-7-Luc). Further: key: Ago: agonist; N.M.: not measurable. In kind it is cell-based. The settings on record: trans-stilbenes. The method, then: The human adenocarcinoma breast cell line MCF-7 was obtained from the American Tissue Culture Collection (Rockville, USA). The cells were established by stably transfecting MCF-7 cells with the ERE-globin-tk-luc-SV-Neo plasmid and thus expressed luciferase in an estrogen dependent manner MCF-7-Luc. […] Cells were incubated at 37° C. in a humidified 5% CO2 incubator. For experiments, cells were grown for 5 days in phenol red-free medium, containing 5% dextran-coated charcoal treated FCS (DCC-FCS). Medium was changed after 2 days. At day 5, cells were treated or not with compounds. Compounds were dissolved in ethanol.
For each condition, 15.103 cells were seeded per well in 12-well plates and treated, as described above, during 16 hours in a final volume of 0.5 mL. At the end of the treatment, cells were washed with PBS and lysed in 150 μl of lysis buffer (Promega, Charbonnieres, France). Luciferase activity was measured using the luciferase assay reagent (Promega), according to the manufacturer's instructions. Protein concentrations were measured using Bradford technique, to normalize the luciferase activity data. For each condition, average luciferase activity was calculated from the data of 3 independent wells.

For data set [4], the system named is A549 cell line. Nature of the data set: Cytotoxicity, MTT colorimetric assay. Format: cell-based, human. The procedure: Cytotoxicity was evaluated on the A549 cell line. […] A MTT colorimetric assay was employed as described in (5) according to the established procedure 1. Drug stock solutions were prepared in EtOH and the final solvent concentration was=1% EtOH(v/v), a concentration without effect on cell replication. […] Cells were cultured at 37° C. in RPMI-1640 medium with streptomycin/penicillin and 5% (v/v) FCS in a humidified atmosphere containing 5% CO2. Initial seeding densities varied among the cell lines to ensure a final absorbance reading in control cultures in the range of 0.7-1 […] units. After the addition of the samples to the cell culture, the cells were incubated for 5 days before the MTT reagent was added. Each test was performed in duplicate and absorbance readings varied no more than 5%.
In general terms: Tetrazolium dyes change colour on reduction, which living cells bring about.

Take `Clc1cc2c(cc1Cl)Oc1cc(Cl)c(Cl)cc1O2` [TCDD, 2,3,7,8-tetrachlorodibenzo-p-dioxin]: in data set [1], the Kd was 1000 pM. In addition, the EC50 in data set [2] is 15 pM.
For `Oc1ccc(C=Cc2cc(O)cc(O)c2)cc1` [Resveratrol, 3,5,4′-trihydroxystilbene, reference compound], the “ER T.A. (transcriptional activity)” value in data set [3] is “Ago”. Besides, the “cytotoxicity: not toxic up to concentration” value in data set [4] is greater than 10 µM.

The term Kd denotes the concentration at which binding is half-saturated.

These data come from patent US20040147788A1, “Stilbene derivatives and their use as aryl hydrocarbon receptor antagonistic ligands” (priority 2002, published 2004).
